Assay results as given in patent publication US11389469B2, “Targeting NAD+ to treat chemotherapy and radiotherapy induced cognitive impairment, neuropathies and inactivity” (NewSouth Innovations Pty Ltd, priority 2015, dated 2022).

Assays:
Male Sprague-Dawley rats [1] = experiment: Novel location recognition test (short term spatial memory) after doxorubicin; format: in vivo, rat
Procedure: (§1) FIGS. 1A-1D. […] A) Voluntary wheel running, followed by B) the von Frey test for mechanical allodynia (pain) at day 3. At day 8, C) short term spatial memory was assessed using the novel location recognition test. At day 9, D) short term object memory was assessed using the novel object recognition test. n=8, *p<0.05, **p<0.01, ****p<0.0001. Dunn's multiple comparison test, Kruskal Wallis one-way ANOVA.
(§2) In this Example, the strategy is to raise NAD^+ levels during chemotherapy treatment by administering animals with a cell permeable NAD^+ precursor known as nicotinamide mononucleotide (NMN). […] As expected, a single dose of doxorubicin caused neurocognitive defects including reduced voluntary wheel running, increased pain, and reduced short term spatial memory (FIG. 1).

Male Sprague-Dawley rats [2] = experiment: von Frey test for mechanical allodynia (pain) after doxorubicin; format: in vivo, rat
Procedure: as §1, §2

Male Sprague-Dawley rats [3] = experiment: Voluntary wheel running after doxorubicin; format: in vivo, rat
Procedure: as §1, §2

elderly mice = details: reference [17]; cited from earlier work
muscle mitochondria = experiment: Mitochondrial respiration in Clarke type electrode; details: aged NMN treated mice, preliminary data FIG. 3C

In the case of COc1cccc2c1C(=O)c1c(O)c3c(c(O)c1C2=O)C[C@@](O)(C(=O)CO)C[C@@H]3O[C@H]1C[C@H](N)[C@H](O)[C@H](C)O1 [doxorubicin, reference compound], the “short term spatial memory (novel location recognition test), effect of doxorubicin” value (Male Sprague-Dawley rats [1]; single i.p. dose of doxorubicin (4 mg/kg), day 8, male SD rats) is reported as “reduced”, the “pain (mechanical allodynia, von Frey test), effect of doxorubicin” value (Male Sprague-Dawley rats [2]; single i.p. dose of doxorubicin (4 mg/kg), day 3, male SD rats) is reported as “increased” and the “voluntary wheel running, effect of doxorubicin” value (Male Sprague-Dawley rats [3]; single i.p. dose of doxorubicin (4 mg/kg), male SD rats) is reported as “reduced”.
In the case of Nicotinamide Mononucleotide [NMN], the “metabolism and aspects of ageing” value (elderly mice) is given as “improve metabolism and reverse aspects of ageing”, the “effect of NMN on doxorubicin-reduced short term spatial memory (novel location recognition)” value (Male Sprague-Dawley rats [1]; NMN in drinking water (500 mg/L) plus 200 mg/kg co-administered with doxorubicin 4 mg/kg i.p., day 8) is given as “reduced the effects of doxorubicin” and the “mitochondrial dysfunction (respiratory capacity of muscle mitochondria)” value (muscle mitochondria) is given as “reverse”. The “effect of NMN on doxorubicin-increased pain (mechanical allodynia, von Frey)” value (Male Sprague-Dawley rats [2]; NMN in drinking water (500 mg/L) plus 200 mg/kg co-administered with doxorubicin 4 mg/kg i.p., day 3) was “reduced the effects of doxorubicin” and the “effect of NMN on doxorubicin-reduced voluntary wheel running” value (Male Sprague-Dawley rats [3]; NMN in drinking water (500 mg/L) 24 hr prior and subsequent, plus 200 mg/kg co-administered with doxorubicin 4 mg/kg i.p.) was “reduced the effects of doxorubicin”.
In the case of NC(=O)c1ccc[n+]([C@@H]2O[C@H](CO)[C@@H](O)[C@H]2O)c1 [NR, Nicotinamide Riboside], the “metabolism and aspects of ageing” value (elderly mice) is given as “improve metabolism and reverse aspects of ageing”.
